Results on nine compounds are retold here after patent publication US12590099B2, “Inhibitors of histone deacetylase useful for the treatment or prevention of HIV infection” (Merck Sharp & Dohme LLC, priority 2018, dated 2026).

The structures appear in SMILES notation. A value given as a limit tells only on which side of the number the result lay.

Test [1] deals with T1, Recombinant human HDAC1 (Homo sapiens, UniProt Q13547).
T1 construct: FLAG (C); made in house
Nature of the test: Human HDAC enzyme inhibitor Fluor-de-Lys assay, HDAC1. Format: biochemical. The note with it: recombinant human HDAC1, Fluor-de-Lys assay. The gist of the method: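 Fluor-de-Lys format at room temperature (23° C.): compounds titrated 10-point, 1:3, preincubated with HDAC before substrate addition; HDAC1 run at 0.3 nM enzyme with 20 μM BML-KI104. Developer with excess HDAC inhibitor ends the reaction, and trypsin-liberated AMC fluorescence is the read-out.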

In test [2] the target is T2, HDAC6 (Homo sapiens, UniProt Q9UBN7).
T2 sequence (Q9UBN7 1-1215): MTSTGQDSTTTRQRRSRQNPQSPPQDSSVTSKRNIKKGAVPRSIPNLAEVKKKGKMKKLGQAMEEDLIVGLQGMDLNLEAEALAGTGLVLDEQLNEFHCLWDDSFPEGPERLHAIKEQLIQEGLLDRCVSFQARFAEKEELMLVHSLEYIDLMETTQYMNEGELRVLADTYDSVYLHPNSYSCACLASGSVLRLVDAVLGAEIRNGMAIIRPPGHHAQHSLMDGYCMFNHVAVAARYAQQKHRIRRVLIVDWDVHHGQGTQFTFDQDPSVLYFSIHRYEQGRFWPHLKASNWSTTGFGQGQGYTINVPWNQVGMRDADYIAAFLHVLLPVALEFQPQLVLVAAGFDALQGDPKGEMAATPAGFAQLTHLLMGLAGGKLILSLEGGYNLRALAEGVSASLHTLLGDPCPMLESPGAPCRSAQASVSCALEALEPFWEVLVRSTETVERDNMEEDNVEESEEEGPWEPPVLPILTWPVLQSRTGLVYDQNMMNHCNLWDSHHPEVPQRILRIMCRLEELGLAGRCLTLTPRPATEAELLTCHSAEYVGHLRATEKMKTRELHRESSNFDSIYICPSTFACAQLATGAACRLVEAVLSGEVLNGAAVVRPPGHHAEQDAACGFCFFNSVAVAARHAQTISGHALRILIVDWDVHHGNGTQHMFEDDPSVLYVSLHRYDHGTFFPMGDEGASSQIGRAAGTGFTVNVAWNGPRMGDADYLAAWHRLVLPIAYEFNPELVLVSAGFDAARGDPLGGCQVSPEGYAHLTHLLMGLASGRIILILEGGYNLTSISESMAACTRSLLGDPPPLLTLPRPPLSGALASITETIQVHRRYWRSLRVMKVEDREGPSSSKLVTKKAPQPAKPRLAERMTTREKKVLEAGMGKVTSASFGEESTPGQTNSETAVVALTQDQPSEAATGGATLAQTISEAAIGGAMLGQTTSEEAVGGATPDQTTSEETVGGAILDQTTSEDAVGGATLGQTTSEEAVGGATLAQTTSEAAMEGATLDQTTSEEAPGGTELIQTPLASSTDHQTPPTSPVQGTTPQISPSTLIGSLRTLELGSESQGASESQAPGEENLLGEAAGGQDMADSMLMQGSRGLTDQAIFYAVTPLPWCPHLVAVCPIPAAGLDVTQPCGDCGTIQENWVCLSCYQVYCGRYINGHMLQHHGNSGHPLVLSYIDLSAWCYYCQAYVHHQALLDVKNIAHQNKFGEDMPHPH
As to the kind of experiment: Human HDAC enzyme inhibitor Fluor-de-Lys assay, HDAC6. In kind it is biochemical. The note with it: HDAC6, Fluor-de-Lys assay.

T1 sequence (Q13547 whole entry): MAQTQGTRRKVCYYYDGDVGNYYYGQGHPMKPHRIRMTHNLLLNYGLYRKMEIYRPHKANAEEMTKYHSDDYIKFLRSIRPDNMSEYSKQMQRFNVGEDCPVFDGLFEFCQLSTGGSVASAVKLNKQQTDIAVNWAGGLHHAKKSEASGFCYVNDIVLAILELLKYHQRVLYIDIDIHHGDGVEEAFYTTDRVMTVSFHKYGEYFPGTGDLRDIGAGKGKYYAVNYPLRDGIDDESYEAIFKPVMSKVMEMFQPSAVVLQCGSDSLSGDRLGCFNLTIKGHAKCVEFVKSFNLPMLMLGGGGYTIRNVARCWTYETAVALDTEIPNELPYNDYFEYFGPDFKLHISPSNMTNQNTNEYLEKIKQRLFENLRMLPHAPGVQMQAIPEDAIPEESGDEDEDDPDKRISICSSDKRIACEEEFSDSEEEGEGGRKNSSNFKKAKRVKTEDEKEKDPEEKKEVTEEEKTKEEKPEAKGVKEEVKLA

Regarding `CCC(=O)CCCCC[C@H](NC(=O)[C@H]1CC12CCN(C)CC2)c1ncc(-c2cc3ccncc3cc2OC)o1` [Compound 405], the IC50 (as a rule, the concentration needed to halve the response being measured) was found to be 0.3 nM in test [1] and 163 nM in test [2].
In the same order, the values of `CCC(=O)CCCCC[C@H](NC(=O)[C@H]1CC12CCN(C)CC2)c1ncc(-c2cc3ccc(N(C)C)nc3cc2OC)o1` [Compound 406] are 0.83 nM and over 900 nM.
In the same order, the values of `CCC(=O)CCCCC[C@H](NC(=O)[C@H]1CC12CCN(C)CC2)c1ncc(-c2cc3ocnc3cc2OC)o1` [Compound 408] are 3.82 nM and 647 nM.
For `CCC(=O)CCCCCC(N)(COC)c1ncc(-c2cc3ccc(C)nc3cc2OC)[nH]1` (stereo not drawn) [Compound 414, 9-amino-10-methoxy-9-[5-(7-methoxy-2-methylquinolin-6-yl)-1H-imidazol-2-yl]decan-3-one], in that order: over 900 nM and over 900 nM.
In the case of `CCC(=O)CCCCC[C@H](NC(=O)C1=NOC2(CCN(C)CC2)C1)c1ncc(-c2cc3ccncc3cc2OC)o1` [Compound 415], the IC50 in test [1] was 3.31 nM; in test [2], over 900 nM.
For `CCCC(=O)CCCCC[C@H](NC(=O)[C@H]1CC12CCN(CC1CC1)CC2)c1ncc(-c2cc3ccc(C)nc3cc2OC)[nH]1` [Compound 416], in that order: under 1.58 nM and over 900 nM.
For `CCC(=O)CCCCCC(CC)(NC(=O)[C@H]1CC12CCN(CC1CC1)CC2)c1nc(-c2cc3ccc(C)nc3cc2OC)c[nH]1` (stereo partly drawn) [Compound 420, (1S)-6-(cyclopropylmethyl)-N-{3-[4-(7-methoxy-2-methylquinolin-6-yl)-1H-imidazol-2-yl]-9-oxoundecan-3-yl}-6-azaspiro[2.5]octane-1-carboxamide], in that order: 484 nM and over 900 nM.
As for `CCC(=O)CCCCC[C@H](NC(=O)[C@H]1CC12CCN(CC1CC1)CC2)c1ncc(-c2cc3ccc(C)nc3cc2OC)o1` [Compound 422], the IC50 in test [1] was 0.17 nM; in test [2], 113 nM.
For `CCCC(=O)CCCCC[C@H](N)c1ncc(-c2cc3ccc(C)nc3cc2OC)[nH]1` [Compound A30], in that order: 60.6 nM and over 900 nM.
